According to PubChem BioAssay AID248 (DTP/NCI, 2004):
Values joined by “and” are separate entries in the source; they are usually repeats but may differ in a detail not shown here. Equal values may be shown once. Inconclusive results and toxic doses are left out.

Test system: L1210 leukemia ip in BDF1 mice, survival T/C
Assay: NCI In Vivo Anticancer Drug Screen. Data for tumor model L1210 Leukemia (intraperitoneal) in B6D2F1 (BDF1) mice
Details: higher = longer survival
Method in brief: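 Transplantable tumor model; survival measured in treated vs vehicle control mice. Value = treated/control.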

Nc1nc2n[nH]nc2c(=O)[nH]1
T/C (endpoint: mean survival time, dose: 87.0 mg/kg/injection, schedule: Q07DX Z (ip), vehicle: water): 121 % of control
T/C (endpoint: mean survival time, dose: 89.4 mg/kg/injection, schedule: Q01DX Z (ip), vehicle: carboxymethylcellulose (CMC)): 154 % of control
T/C (endpoint: mean survival time, dose: 90.0 mg/kg/injection, schedule: Q01DX009 (ip), vehicle: other): 150 % of control
T/C (endpoint: mean survival time, dose: 90.0 mg/kg/injection, schedule: Q01DX015 (ip), vehicle: carboxymethylcellulose (CMC)): 155 % of control
T/C (endpoint: mean survival time, dose: 90.0 mg/kg/injection, schedule: Q## X015 (ip), vehicle: carboxymethylcellulose (CMC)): 155 % of control
T/C (endpoint: mean survival time, dose: 100.0 mg/kg/injection, schedule: Q01DX001 (ip), vehicle: steriod suspending solution): 118 % of control
T/C (endpoint: mean survival time, dose: 100.0 mg/kg/injection, schedule: Q01DX009 (ip), vehicle: other): 152 % of control
T/C (endpoint: mean survival time, dose: 100.0 mg/kg/injection, schedule: Q01DX009 (ip), vehicle: water): 154 % of control
T/C (endpoint: mean survival time, dose: 100.0 mg/kg/injection, schedule: Q01DX Z (im), vehicle: water): 160 % of control
T/C (endpoint: mean survival time, dose: 100.0 mg/kg/injection, schedule: Q#A X Z (ip), vehicle: carboxymethylcellulose (CMC)): 115 % of control
T/C (endpoint: mean survival time, dose: 111.75 mg/kg/injection, schedule: Q01DX Z (ip), vehicle: carboxymethylcellulose (CMC)): 160 % of control
T/C (endpoint: mean survival time, dose: 125.0 mg/kg/injection, schedule: Q01DX001 (sc), vehicle: carboxymethylcellulose (CMC)): 109 % of control
T/C (endpoint: mean survival time, dose: 125.0 mg/kg/injection, schedule: Q## X003 (ip), vehicle: carboxymethylcellulose (CMC)): 152 % of control and 155 % of control
T/C (endpoint: mean survival time, dose: 135.0 mg/kg/injection, schedule: Q01DX015 (ip), vehicle: carboxymethylcellulose (CMC)): 152 % of control
T/C (endpoint: mean survival time, dose: 135.0 mg/kg/injection, schedule: Q## X015 (ip), vehicle: carboxymethylcellulose (CMC)): 152 % of control
T/C (endpoint: mean survival time, dose: 150.0 mg/kg/injection, schedule: Q01DX009 (sc), vehicle: carboxymethylcellulose (CMC)): 150 % of control
T/C (endpoint: mean survival time, dose: 150.0 mg/kg/injection, schedule: Q01DX Z (ip), vehicle: carboxymethylcellulose (CMC)): 156 % of control
T/C (endpoint: mean survival time, dose: 175.0 mg/kg/injection, schedule: Q01DX001 (ip), vehicle: water): 119 % of control and 121 % of control
T/C (endpoint: mean survival time, dose: 175.0 mg/kg/injection, schedule: Q07DX Z (ip), vehicle: water): 116 % of control
T/C (endpoint: mean survival time, dose: 200.0 mg/kg/injection, schedule: Q01DX001 (ip), vehicle: steriod suspending solution): 120 % of control
T/C (endpoint: mean survival time, dose: 200.0 mg/kg/injection, schedule: Q01DX009 (ip), vehicle: saline): 102 % of control
T/C (endpoint: mean survival time, dose: 200.0 mg/kg/injection, schedule: Q01DX009 (ip), vehicle: water): 152 % of control and 160 % of control
T/C (endpoint: mean survival time, dose: 200.0 mg/kg/injection, schedule: Q01DX Z (im), vehicle: carboxymethylcellulose (CMC)): 103 % of control
T/C (endpoint: mean survival time, dose: 200.0 mg/kg/injection, schedule: Q01DX Z (sc), vehicle: carboxymethylcellulose (CMC)): 124 % of control
T/C (endpoint: mean survival time, dose: 202.0 mg/kg/injection, schedule: Q01DX009 (ip), vehicle: other): 98 % of control
T/C (endpoint: mean survival time, dose: 202.5 mg/kg/injection, schedule: Q01DX015 (ip), vehicle: carboxymethylcellulose (CMC)): 97 % of control
T/C (endpoint: mean survival time, dose: 202.5 mg/kg/injection, schedule: Q## X015 (ip), vehicle: carboxymethylcellulose (CMC)): 97 % of control
T/C (endpoint: mean survival time, dose: 223.5 mg/kg/injection, schedule: Q01DX Z (ip), vehicle: carboxymethylcellulose (CMC)): 107 % of control
T/C (endpoint: mean survival time, dose: 225.0 mg/kg/injection, schedule: Q01DX015 (ip), vehicle: clinical formulation): 156 % of control
T/C (endpoint: mean survival time, dose: 250.0 mg/kg/injection, schedule: Q01DX001 (sc), vehicle: carboxymethylcellulose (CMC)): 113 % of control
T/C (endpoint: mean survival time, dose: 250.0 mg/kg/injection, schedule: Q06DX003 (ip), vehicle: carboxymethylcellulose (CMC)): 151 % of control
T/C (endpoint: mean survival time, dose: 250.0 mg/kg/injection, schedule: Q## X003 (ip), vehicle: carboxymethylcellulose (CMC)): 155 % of control
T/C (endpoint: mean survival time, dose: 300.0 mg/kg/injection, schedule: Q01DX009 (ip), vehicle: other): 119 % of control
T/C (endpoint: mean survival time, dose: 300.0 mg/kg/injection, schedule: Q01DX009 (sc), vehicle: carboxymethylcellulose (CMC)): 151 % of control
T/C (endpoint: mean survival time, dose: 300.0 mg/kg/injection, schedule: Q03DX Z (ip), vehicle: water): 121 % of control
T/C (endpoint: mean survival time, dose: 350.0 mg/kg/injection, schedule: Q01DX001 (ip), vehicle: water): 116 % of control and 121 % of control
T/C (endpoint: mean survival time, dose: 350.0 mg/kg/injection, schedule: Q07DX Z (ip), vehicle: water): 109 % of control
T/C (endpoint: mean survival time, dose: 400.0 mg/kg/injection, schedule: Q01DX Z (sc), vehicle: carboxymethylcellulose (CMC)): 100 % of control
T/C (endpoint: mean survival time, dose: 500.0 mg/kg/injection, schedule: Q01DX001 (ip), vehicle: carboxymethylcellulose (CMC)): 150 % of control
T/C (endpoint: mean survival time, dose: 500.0 mg/kg/injection, schedule: Q## X003 (ip), vehicle: carboxymethylcellulose (CMC)): 95 % of control
T/C (endpoint: mean survival time, dose: 700.0 mg/kg/injection, schedule: Q01DX001 (ip), vehicle: water): 97 % of control
T/C (endpoint: mean survival time, dose: 750.0 mg/kg/injection, schedule: Q10DX003 (ip), vehicle: carboxymethylcellulose (CMC)): 157 % of control
T/C (endpoint: median survival time, dose: 12.5 mg/kg/injection, schedule: Q01DX009 (ip), vehicle: other): 122 % of control
T/C (endpoint: median survival time, dose: 25.0 mg/kg/injection, schedule: Q01DX009 (ip), vehicle: other): 122 % of control
T/C (endpoint: median survival time, dose: 200.0 mg/kg/injection, schedule: Q01DX009 (ip), vehicle: other): 150 % of control
